# From paper PMC12416277, “Phytochemical alkaloids orchestrate immunometabolism against viral infections” (National Science Review, 2025)
# Experiments:
# A549 cells = assay: Confocal analysis of filipin-stained cholesterol distribution in A549 cells; format: cell-based
# NPC1 = biological target: T1, NPC1 (Homo sapiens, UniProt O15118); assay: Drug affinity responsive target stability (DARTS); details: 150 µM, pronase digestion
# T1 sequence (O15118 23-1278): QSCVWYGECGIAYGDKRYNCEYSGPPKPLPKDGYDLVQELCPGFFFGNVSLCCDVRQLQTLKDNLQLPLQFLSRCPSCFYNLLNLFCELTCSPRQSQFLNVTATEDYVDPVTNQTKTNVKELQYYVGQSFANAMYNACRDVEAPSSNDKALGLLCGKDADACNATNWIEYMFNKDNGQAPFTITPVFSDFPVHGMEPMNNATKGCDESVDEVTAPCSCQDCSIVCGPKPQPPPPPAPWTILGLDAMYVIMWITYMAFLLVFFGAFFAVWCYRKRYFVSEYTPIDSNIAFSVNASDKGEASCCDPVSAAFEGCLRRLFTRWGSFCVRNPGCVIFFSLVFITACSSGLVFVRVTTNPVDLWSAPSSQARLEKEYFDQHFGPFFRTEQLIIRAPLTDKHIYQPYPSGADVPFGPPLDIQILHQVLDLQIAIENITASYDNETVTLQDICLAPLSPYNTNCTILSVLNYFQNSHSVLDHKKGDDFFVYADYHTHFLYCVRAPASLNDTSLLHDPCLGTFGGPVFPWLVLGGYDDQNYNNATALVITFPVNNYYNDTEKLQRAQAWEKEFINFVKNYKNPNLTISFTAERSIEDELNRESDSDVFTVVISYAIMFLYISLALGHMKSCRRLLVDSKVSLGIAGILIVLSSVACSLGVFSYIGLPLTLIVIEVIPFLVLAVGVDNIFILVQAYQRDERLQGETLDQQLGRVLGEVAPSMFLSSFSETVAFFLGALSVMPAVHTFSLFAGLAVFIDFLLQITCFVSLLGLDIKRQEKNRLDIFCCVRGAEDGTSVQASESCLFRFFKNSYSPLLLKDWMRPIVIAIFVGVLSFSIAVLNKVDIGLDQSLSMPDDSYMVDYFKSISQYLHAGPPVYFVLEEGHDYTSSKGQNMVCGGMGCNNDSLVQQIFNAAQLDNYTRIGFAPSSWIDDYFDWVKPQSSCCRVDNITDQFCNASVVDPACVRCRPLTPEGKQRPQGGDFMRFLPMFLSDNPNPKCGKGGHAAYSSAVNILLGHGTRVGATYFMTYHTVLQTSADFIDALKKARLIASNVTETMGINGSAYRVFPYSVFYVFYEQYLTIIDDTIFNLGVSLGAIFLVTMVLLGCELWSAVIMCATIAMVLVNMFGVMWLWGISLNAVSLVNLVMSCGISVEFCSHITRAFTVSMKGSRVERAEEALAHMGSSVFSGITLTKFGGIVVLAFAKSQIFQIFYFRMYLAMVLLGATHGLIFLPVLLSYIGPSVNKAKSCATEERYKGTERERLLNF
smiles,measurement,setting,value
"COc1ccc2cc1Oc1ccc(cc1)C[C@H]1c3cc(c(OC)cc3CCN1C)Oc1c(OC)c(OC)cc3c1[C@H](C2)N(C)CC3 [Tet, tetrandrine]",cholesterol distribution / lysosomal cholesterol accumulation,A549 cells,shifting it from the plasma membrane to endosomal and lysosomal compartments
same,NPC1 stability (DARTS),NPC1,enhanced NPC1 stability against degradation
